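A five-concentration, 48-hour dose response in 96-well plates underlies each endpoint, interpolated linearly between surrounding concentrations. GI50: concentration for 50% inhibition of growth. TGI marks complete inhibition of growth.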
Assays:
Assay in all cases: NCI anticancer screen, dose series, 48 h
[1] = test system: A498 renal
[2] = test system: HCT-116 colon
[3] = test system: HCT-15 colon
[4] = test system: M14 melanoma
[5] = test system: NCI-H226 lung
[6] = test system: NCI/ADR-RES ovarian
[7] = test system: SF-268 CNS
[8] = test system: SF-295 CNS
[9] = test system: SK-OV-3 ovarian
[10] = test system: SW-620 colon

Compound | GI50 [1] | TGI [1] | GI50 [2] | TGI [2] | GI50 [3] | TGI [3] | GI50 [4] | TGI [4] | GI50 [5] | TGI [5] | GI50 [6] | TGI [6] | GI50 [7] | TGI [7] | GI50 [8] | TGI [8] | GI50 [9] | TGI [9] | GI50 [10] | TGI [10]
C=C(C(=O)OC)[C@@H]1C[C@@H](O)[C@]2(C)CC/C=C(\C)CCC[C@H](C)[C@H](O)C1O2 | 65.9 µM | > 100 µM | 21.1 µM | 58 µM | 59 µM | > 100 µM | 44 µM | > 100 µM | 86.7 µM | > 100 µM | 83.7 µM | > 100 µM | 65 µM | > 100 µM | 83.8 µM | > 100 µM | > 100 µM | > 100 µM | 42.2 µM | > 100 µM
CN1c2ccccc2C(C)(C)C12CC(c1ccc(Cl)c(S(=O)(=O)N3CCCC3)c1)=NO2 (centres undefined) | > 100 µM | > 100 µM | – | – | 0.118 µM | > 100 µM | > 100 µM | > 100 µM | > 100 µM | > 100 µM | > 100 µM | > 100 µM | > 100 µM | > 100 µM | > 100 µM | > 100 µM | > 100 µM | > 100 µM | – | –
CC(C)(CCC(C)(C)c1ccccc1)c1ccccc1 | – | 33.2 µM | – | 29.4 µM | – | 45.7 µM | – | 52.7 µM | – | 37.6 µM | – | 36.9 µM | – | 33.3 µM | – | 31.6 µM | – | 82.6 µM | – | 35.2 µM
COC(=O)[C@H](Cc1ccccc1)NC(=O)[C@@H](OC)[C@@H]1Cc2cc3cc(OC4CC(OC5CC(O)C(O)C(C)O5)C(O)C(C)O4)c(C)c(O)c3c(O)c2C(=O)[C@H]1OC1CC(OC2CC(OC3CC(C)(O)C(O)C(C)O3)C(O)C(C)O2)C(O)C(C)O1 (some centres undefined) | 0.024 µM | 0.0626 µM | 0.00587 µM | > 14.3 µM | 0.0725 µM | > 14.3 µM | 0.0267 µM | 0.105 µM | 0.018 µM | 0.0741 µM | 4.22 µM | > 14.3 µM | 0.0298 µM | 2.24 µM | 0.025 µM | 1.7 µM | 0.0509 µM | > 14.3 µM | 0.0196 µM | > 14.3 µM
COc1ccc(C(=O)N/N=C/c2ccc(O)cc2O)cc1Nc1ccnc(C(F)(F)F)c1 | 0.193 µM | 9.33 µM | 0.354 µM | 8.77 µM | 2.45 µM | > 100 µM | 0.731 µM | 5.55 µM | 1.39 µM | 11.6 µM | 11.9 µM | > 100 µM | 0.299 µM | 16.7 µM | 1.07 µM | 20.6 µM | 0.725 µM | 18.8 µM | 1.16 µM | 24.2 µM
C#CC#CC#CC#CC#CC#CC#CC#CCC1OC[C@H](COC(=O)O[C@@H](C(=O)O[C@H]2C[C@@]3(O)[C@@H](OC(=O)c4ccccc4)[C@@H]4[C@]5(OC(C)=O)CO[C@@H]5C[C@H](O)[C@@]4(C)C(=O)[C@H](OC(C)=O)C(=C2C)C3(C)C)[C@@H](NC(=O)c2ccccc2)c2ccccc2)O1 (some centres undefined) | 0.494 µM | > 8.14 µM | 0.145 µM | > 33.3 µM | 11.7 µM | > 33.3 µM | 0.386 µM | 3.59 µM | > 33.3 µM | > 33.3 µM | > 33.3 µM | > 33.3 µM | 0.992 µM | > 33.3 µM | 1.01 µM | > 27.5 µM | 1.38 µM | > 33.3 µM | 0.261 µM | > 33.3 µM
COc1ccc2c(c1)C(=O)c1c-2n(CCCCl)c(=O)c2cc(N(C)C)ccc12 | 95.6 µM | > 100 µM | 43.9 µM | > 100 µM | > 100 µM | > 100 µM | > 100 µM | > 100 µM | 54.7 µM | > 100 µM | > 100 µM | > 100 µM | 33.3 µM | > 100 µM | > 100 µM | > 100 µM | 36.2 µM | > 100 µM | > 100 µM | > 100 µM
COc1cccc(C2C(C#N)=C(N)Oc3cc(OC)ccc32)c1 (centres undefined) | 0.0198 µM | 0.0709 µM | 0.0479 µM | 12.4 µM | 0.0366 µM | > 100 µM | 0.0271 µM | > 100 µM | 0.896 µM | > 100 µM | 0.0184 µM | – | 0.0762 µM | > 82.3 µM | 0.0286 µM | 33.9 µM | 0.0478 µM | – | 0.035 µM | > 100 µM
Clc1ccc(-c2cn(-c3ccccc3)c(-c3ccccc3)n2)c(Cl)c1 | 12.6 µM | > 45.1 µM | 1.09 µM | 2.66 µM | 2.91 µM | > 50 µM | 2.47 µM | > 15.1 µM | > 26 µM | > 50 µM | 3.51 µM | > 44.9 µM | 1.78 µM | > 11 µM | 1.45 µM | 4.68 µM | 5.15 µM | > 35.7 µM | 1.01 µM | 2.07 µM
